Values after ≈ are worked out from the molar mass of the structure shown.
Tests used:
Assay type in all cases: cell-based
[1] = test system: STAPHYLOCOCCUS AUREUS ATCC 6538P; assay: In vitro antibacterial activity, MIC, BHI agar dilution; settings: S. aureus ATCC 6538P, 35-37° C., 20 to 24 hours, unit assumed
[2] = test system: STAPHYLOCOCCUS AUREUS A5177; assay: as above; settings: S. aureus A5177, unit assumed
[3] = test system: STAPHYLOCOCCUS AUREUS A-5278; assay: as above; settings: S. aureus A-5278, unit assumed
[4] = test system: STAPHYLOCOCCUS AUREUS CMX 642A; assay: as above; settings: S. aureus CMX 642A, unit assumed
[5] = test system: STAPHYLOCOCCUS AUREUS NCTC10649M; assay: as above; settings: S. aureus NCTC10649M, unit assumed
[6] = test system: STAPHYLOCOCCUS AUREUS CMX 553; assay: as above; settings: S. aureus CMX 553, unit assumed
[7] = test system: STAPHYLOCOCCUS AUREUS 1775; assay: as above; settings: S. aureus 1775, unit assumed
[8] = test system: STAPHYLOCOCCUS EPIDERMIDIS 3519; settings: S. epidermidis 3519; BHI agar; unit assumed
EN[…] ATCC 8043 = assay: In vitro antibacterial activity, MIC, BHI agar dilution; settings: E. faecium ATCC 8043, unit assumed
Outline: (§1)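 MIC was read visually as the lowest drug level with no growth, a slight haze or sparsely isolated colonies relative to a compound-free growth control. Organisms were spotted at 1:100 dilution (1:10 for slow-growing strains) onto Brain Heart Infusion agar containing serial compound dilutions and incubated 20 to 24 hours at 35-37° C.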

M[…] ATCC 4698 = assay: as above; settings: M. luteus ATCC 4698, unit assumed
Outline: as §1

M[…] ATCC 9341 = assay: as above; settings: M. luteus ATCC 9341, unit assumed
Outline: as §1

STR[…] 508 = assay: as above; settings: S. agalactiae CMX 508, unit assumed
Outline: as §1

[9] = test system: STREPTOCOCCUS BOVIS A-5169; assay: as above; settings: S. bovis A-5169, unit assumed
[10] = test system: STREPTOCOCCUS PYOGENES EES61; assay: as above; settings: S. pyogenes EES61, unit assumed
[11] = test system: STREPTOCOCCUS PYOGENES 930; assay: as above; settings: S. pyogenes 930, unit assumed
[12] = test system: STREPTOCOCCUS PYOGENES PIU 2548; assay: as above; settings: S. pyogenes PIU 2548, unit assumed
ESCHERICHIA COLI JUHL = settings: E. coli JUHL; BHI agar; unit assumed
ESCHERICHIA COLI SS = assay: In vitro antibacterial activity, MIC, BHI agar dilution; settings: E. coli SS, unit assumed
ESCHERICHIA COLI DC-2 = assay: as above; settings: E. coli DC-2, unit assumed
ESCHERICHIA COLI H560 = assay: as above; settings: E. coli H560, unit assumed
ESCHERICHIA COLI KNK 437 = settings: E. coli KNK 437; BHI agar; unit assumed
[13] = test system: ENTEROBACTER AEROGENES ATCC 13048; assay: In vitro antibacterial activity, MIC, BHI agar dilution; settings: E. aerogenes ATCC 13048, unit assumed
[14] = test system: KLEBSIELLA PNEUMONIAE ATCC 8045; assay: as above; settings: K. pneumoniae ATCC 8045, unit assumed
[15] = test system: PROVIDENCIA STUARTII CMX 640; settings: P. stuartii CMX 640; BHI agar; unit assumed
[16] = test system: PSEUDOMONAS AERUGINOSA BMH10; assay: In vitro antibacterial activity, MIC, BHI agar dilution; settings: P. aeruginosa BMH10, unit assumed
[17] = test system: PSEUDOMONAS AERUGINOSA 5007; assay: as above; settings: P. aeruginosa 5007, unit assumed
[18] = test system: PSEUDOMONAS AERUGINOSA K799/WT; assay: as above; settings: P. aeruginosa K799/WT, unit assumed
[19] = test system: PSEUDOMONAS AERUGINOSA K799/61; assay: as above; settings: P. aeruginosa K799/61, unit assumed
PSEUDOMONAS CEPACIA 296I = assay: as above; settings: P. cepacia 296I, unit assumed
[20] = test system: ACINETOBACTER CALCOACETICUS CMX 669; assay: as above; settings: A. calcoaceticus CMX 669, unit assumed
[21] = test system: PSEUDOMONAS AERUGINOSA DPHD-5263; assay: as above; settings: P. aeruginosa DPHD-5263, unit assumed
[22] = test system: PSEUDOMONAS AERUGINOSA DPHD-2862; assay: as above; settings: P. aeruginosa DPHD-2862, unit assumed
CANDIDA ALBICANS CCH 442 = assay: as above; settings: C. albicans CCH 442, unit assumed
[23] = test system: MYCOBACTERIUM SMEGMATIS ATCC 114; assay: as above; settings: M. smegmatis ATCC 114, unit assumed

| SMILES | MIC [1] [µg/mL] | MIC [2] [µg/mL] | MIC [3] [µg/mL] | MIC [4] [µg/mL] | MIC [5] [µg/mL] | MIC [6] [µg/mL] | MIC [7] [µg/mL] | MIC [8] [µg/mL] | MIC (EN[…] ATCC 8043) [µg/mL] | MIC (M[…] ATCC 4698) [µg/mL] | MIC (M[…] ATCC 9341) [µg/mL] | MIC (STR[…] 508) [µg/mL] | MIC [9] [µg/mL] | MIC [10] [µg/mL] | MIC [11] [µg/mL] | MIC [12] [µg/mL] | MIC (ESCHERICHIA COLI JUHL) [µg/mL] | MIC (ESCHERICHIA COLI SS) [µg/mL] | MIC (ESCHERICHIA COLI DC-2) [µg/mL] | MIC (ESCHERICHIA COLI H560) [µg/mL] | other results |
| --- | --- | --- | --- | --- | --- | --- | --- | --- | --- | --- | --- | --- | --- | --- | --- | --- | --- | --- | --- | --- | --- |
| CC[C@H]1OC(=O)[C@H](C)C(=O)[C@H](C)[C@@H](O[C@@H]2O[C@H](C)C[C@H](N(C)C)[C@H]2O)[C@](C)(OC)C[C@@H](C)C2=N[C@H](CN(C)Cc3ccccc3)CN3C(=O)O[C@@]1(C)[C@H]3[C@H]2C [Example 58] | 0.78 (≈ 1.01 µM) | 0.78 (≈ 1.01 µM) | > 100 | 0.78 (≈ 1.01 µM) | 0.78 (≈ 1.01 µM) | 0.78 (≈ 1.01 µM) | > 100 | 0.78 (≈ 1.01 µM) | 0.2 (≈ 0.259 µM) | 0.39 (≈ 0.506 µM) | 0.1 (≈ 0.13 µM) | 0.02 (≈ 0.0259 µM) | 0.01 (≈ 0.013 µM) | 0.01 (≈ 0.013 µM) | > 100 | 0.39 (≈ 0.506 µM) | > 100 | 0.39 (≈ 0.506 µM) | > 100 | 50 (≈ 64.9 µM) | MIC (ESCHERICHIA COLI KNK 437): > 100 µg/mL; MIC [13]: > 100 µg/mL; MIC [14]: > 100 µg/mL; MIC [15]: > 100 µg/mL; MIC [16]: > 100 µg/mL; MIC [17]: > 100 µg/mL; MIC [18]: > 100 µg/mL; MIC [19]: 3.1 µg/mL (≈ 4.02 µM); MIC (PSEUDOMONAS CEPACIA 296I): > 100 µg/mL; MIC [20]: > 100 µg/mL; MIC [21]: > 100 µg/mL; MIC [22]: > 100 µg/mL; MIC (CANDIDA ALBICANS CCH 442): > 100 µg/mL; MIC [23]: 3.1 µg/mL (≈ 4.02 µM) |
| CC[C@H]1OC(=O)[C@H](C)C(=O)[C@H](C)[C@@H](O[C@@H]2O[C@H](C)C[C@H](N(C)C)[C@H]2O)[C@](C)(OC)C[C@@H](C)C2=NC[C@H](Cc3ccc(O)cc3)N3C(=O)O[C@@]1(C)[C@H]3[C@H]2C [Example 65] | 0.39 (≈ 0.524 µM) | 0.39 (≈ 0.524 µM) | > 100 | 0.39 (≈ 0.524 µM) | 0.39 (≈ 0.524 µM) | 0.39 (≈ 0.524 µM) | > 100 | 0.39 (≈ 0.524 µM) | 0.1 (≈ 0.134 µM) | 0.39 (≈ 0.524 µM) | 0.05 (≈ 0.0672 µM) | 0.02 (≈ 0.0269 µM) | 0.01 (≈ 0.0134 µM) | 0.02 (≈ 0.0269 µM) | > 100 | 1.56 (≈ 2.1 µM) | 50 (≈ 67.2 µM) | 0.39 (≈ 0.524 µM) | 50 (≈ 67.2 µM) | 50 (≈ 67.2 µM) | MIC (ESCHERICHIA COLI KNK 437): 100 µg/mL (≈ 134 µM); MIC [13]: > 100 µg/mL; MIC [14]: > 100 µg/mL; MIC [15]: > 100 µg/mL; MIC [16]: > 100 µg/mL; MIC [17]: > 100 µg/mL; MIC [18]: > 100 µg/mL; MIC [19]: 0.78 µg/mL (≈ 1.05 µM); MIC (PSEUDOMONAS CEPACIA 296I): 100 µg/mL (≈ 134 µM); MIC [20]: 100 µg/mL (≈ 134 µM); MIC [21]: > 100 µg/mL; MIC [22]: > 100 µg/mL; MIC (CANDIDA ALBICANS CCH 442): > 100 µg/mL; MIC [23]: 6.2 µg/mL (≈ 8.33 µM) |
